This is an account of results in ChEMBL document CHEMBL4330079, “Cyclin G-associated kinase (GAK) affinity and antiviral activity studies of a series of 3-C-substituted isothiazolo[4,3-b]pyridines” (Eur J Med Chem, 2019).

For series [1], the target named is T1, Cyclin-G-associated kinase (Homo sapiens, UniProt O14976).
T1 sequence (O14976 whole entry): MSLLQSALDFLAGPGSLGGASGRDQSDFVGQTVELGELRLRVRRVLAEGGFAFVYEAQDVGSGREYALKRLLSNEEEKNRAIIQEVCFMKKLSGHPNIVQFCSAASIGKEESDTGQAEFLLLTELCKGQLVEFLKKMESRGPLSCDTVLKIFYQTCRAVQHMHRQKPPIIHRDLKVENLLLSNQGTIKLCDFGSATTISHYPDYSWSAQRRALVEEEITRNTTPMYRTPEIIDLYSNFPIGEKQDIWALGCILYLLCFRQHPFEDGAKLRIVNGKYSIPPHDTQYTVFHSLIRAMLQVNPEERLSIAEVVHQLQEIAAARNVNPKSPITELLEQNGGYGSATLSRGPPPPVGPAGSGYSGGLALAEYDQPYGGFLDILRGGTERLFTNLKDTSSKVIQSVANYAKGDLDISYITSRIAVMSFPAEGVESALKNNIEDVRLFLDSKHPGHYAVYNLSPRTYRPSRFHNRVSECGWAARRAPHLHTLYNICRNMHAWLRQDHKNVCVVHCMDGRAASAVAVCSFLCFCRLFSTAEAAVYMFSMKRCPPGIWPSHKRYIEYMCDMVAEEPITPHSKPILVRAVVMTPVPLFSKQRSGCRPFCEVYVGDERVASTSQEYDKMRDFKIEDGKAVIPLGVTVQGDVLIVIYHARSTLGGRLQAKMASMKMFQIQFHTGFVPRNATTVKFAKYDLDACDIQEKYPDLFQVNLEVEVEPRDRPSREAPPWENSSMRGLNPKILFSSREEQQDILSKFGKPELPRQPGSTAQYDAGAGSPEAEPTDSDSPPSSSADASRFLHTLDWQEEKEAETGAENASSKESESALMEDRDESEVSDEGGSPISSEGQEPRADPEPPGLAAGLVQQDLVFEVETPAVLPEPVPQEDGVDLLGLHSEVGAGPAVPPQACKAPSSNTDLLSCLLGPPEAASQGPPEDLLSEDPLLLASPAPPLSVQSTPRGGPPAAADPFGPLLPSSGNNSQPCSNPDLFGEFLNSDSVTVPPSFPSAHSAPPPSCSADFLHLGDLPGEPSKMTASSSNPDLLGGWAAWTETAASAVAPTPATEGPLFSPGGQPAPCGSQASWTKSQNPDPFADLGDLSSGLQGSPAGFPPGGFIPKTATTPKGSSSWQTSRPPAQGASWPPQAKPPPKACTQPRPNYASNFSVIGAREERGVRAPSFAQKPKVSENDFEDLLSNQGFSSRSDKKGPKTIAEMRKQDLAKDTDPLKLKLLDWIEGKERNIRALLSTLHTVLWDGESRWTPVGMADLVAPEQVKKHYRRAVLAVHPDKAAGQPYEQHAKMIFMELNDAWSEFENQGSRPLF
Description: Binding affinity to wild type DNA-tagged human GAK (G13 to Y338 residues) expressed in bacterial expression system by quantitative PCR based KINOMEscan assay.

In series [2] the test system is dengue virus type 2. Nature of the series: Antiviral activity against DENV2 New Guinea C infected in human HuH7 cells after 48 hrs by luciferase reporter gene assay. In kind it is functional, organism-based. As to conditions: Thailand/NGS-C/1944, Huh-7, 48 h. For orientation: A reporter such as luciferase makes a cellular process visible.
In series [3] the test system is Huh-7. Description: Cytotoxicity against human HuH7 cells assessed as reduction in cell viability at 0.01 to 10 uM after 48 hrs by Cell-Titer Glo assay. Type of series: cell-based. The following applies: huh-7, 48 h.

Structures are written as SMILES.

Broadly, the Kd is the free concentration of one partner at which half of the binding sites on the other are occupied at equilibrium, for simple one-to-one binding. The molecule `COc1ccc(-c2cnc3c(-c4ccncc4)snc3c2)cc1OC` returned a Kd in series [1] of 520 nM.
What is called EC50 is the concentration giving half of the maximal effect. Higher therefore signals weaker potency. The molecule `COc1ccc(-c2cnc3c(-c4ccc(OC)c(OC)c4)snc3c2)cc1OC` yielded an EC50 in series [2] of 3350 nM. In series [3], the Activity entry was “Non-Toxic”.
With `COc1ccc(-c2cnc3c(-c4ccsc4)snc3c2)cc1OC`, binding in series [1] was characterised by a dissociation constant (Kd) of 860 nM.
For the molecule `COc1ccc(-c2cnc3c(-c4ccc(C#N)cc4)snc3c2)cc1OC`, in series [1], the Kd is > 30000 nM.
As for `COc1ccc(-c2cnc3c(C#Cc4ccccc4)snc3c2)cc1OC`, the Kd in series [1] was > 30000 nM.
As for `COC(=O)c1ccc(-c2snc3cc(-c4ccc(OC)c(OC)c4)cnc23)cc1`, in series [1], the Kd is > 30000 nM.
As to `COc1ccc(-c2cnc3c(-c4ccccc4)snc3c2)cc1OC`, in series [1], binding was characterised by a dissociation constant (Kd) of 770 nM.
